Source: patent US20020086862A1, “Novel compounds” (AstraZeneca AB, priority 1998, published 2002)

SMILES	melting point
Cc1ccc(Cn2nc(-c3ccccc3Cl)[nH]c2=S)cc1 [Example 50, 5-(2-Chlorophenyl)-1,2-dihydro-2-(4-methylphenyl)methyl-3H-1,2,4-triazole-3-thione]	162 to 163 °C
CC(C)(C)c1ccc(Cn2nc(-c3ccccc3Cl)[nH]c2=S)cc1 [Example 51, 5-(2-Chlorophenyl)-1,2-dihydro-2-[(4(1,1-dimethylethyl)phenyl)methyl]-3H-1,2,4-triazole-3-thione]	211 to 215 °C
S=c1[nH]c(-c2ccccc2Cl)nn1Cc1cccc(Oc2ccccc2)c1 [Example 52, 5-(2-Chlorophenyl)-1,2-dihydro-2-[(3-phenyloxy)phenylmethyl]-3H-1,2,4-triazole-3-thione]	137 to 138 °C
FC(F)(F)c1ccc(Cn2nc(-c3ccccc3Cl)[nH]c2=S)cc1 [Example 53, 5-(2-Chlorophenyl)-1,2-dihydro-2-[[4-(trifluoromethyl)phenyl]methyl]-3H-1,2,4-triazole-3-thione]	167 to 168 °C
COc1ccc(Cn2nc(-c3ccccc3Cl)[nH]c2=S)cc1 [Example 54]	153 to 154 °C
S=c1[nH]c(-c2ccc(Oc3ccccc3)cc2)nn1Cc1cccc(Cl)c1 [Example 55, 2-[(3-Chlorophenyl)methyl]-5-(4-phenoxyphenyl)-1,2-dihydro-3H-1,2,4-triazole-3-thione]	183 to 184 °C
S=c1[nH]c(-c2cccnc2)nn1Cc1cccc(Cl)c1 [Example 56, 2-[(3-Chlorophenyl)methyl]-5-(3-pyridinyl)-1,2-dihydro-3H-1,2,4-triazole-3-thione]	208 to 209 °C
S=c1[nH]c(-c2ccccc2)nn1Cc1cccc(Cl)c1 [Example 57, 2-[(3-Chlorophenyl)methyl]-5-phenyl-1,2-dihydro-3H-1,2,4-triazole-3-thione]	213 °C
Fc1cccc(Cn2nc(-c3ccccc3Cl)[nH]c2=S)c1 [Example 58, 5-(2-Chlorophenyl)-1,2-dihydro-2-[(3-fluorophenyl)methyl]-3H-1,2,4-triazole-3-thione]	125 to 126 °C
S=c1[nH]c(-c2ccccc2Cl)nn1Cc1ccccc1I [Example 59, 5-(2-Chlorophenyl)-1,2-dihydro-2-[(2-iodophenyl)methyl]-3H-1,2,4-triazole-3-thione]	189 to 190 °C
Cc1ccc(C)c(Cn2nc(-c3ccccc3Cl)[nH]c2=S)c1 [Example 60]	166 to 167 °C
Fc1ccc(F)c(Cn2nc(-c3ccccc3Cl)[nH]c2=S)c1 [Example 61, 5-(2-Chlorophenyl)-1,2-dihydro-2-[(2,5-difluorophenyl)methyl]-3H-1,2,4-triazole-3-thione]	161 to 163 °C
O=[N+]([O-])c1ccc(-c2nn(Cc3cccc(Cl)c3)c(=S)[nH]2)cc1 [Example 62, 2-[(3-Chlorophenyl)methyl]-5-(4-nitrophenyl)-1,2-dihydro-3H-1,2,4-triazole-3-thione]	256 to 258 °C
S=c1[nH]c(-c2cncnc2)nn1Cc1cccc(Cl)c1 [Example 63, 2-[(3-Chlorophenyl)methyl]-5-(pyrrndin-5-yl) 1,2-dihydro-3H-1,2,4-triazole-3-thione]	204 to 207 °C
N#Cc1cccc(Cn2nc(-c3ccccc3Cl)[nH]c2=S)c1 [Example 64, 5-(2-Chlorophenyl)-1,2-dihydro-2-[(3-cyanophenyl)methyl]-3H-1,2,4-triazole-3-thione]	161 to 163 °C
O=[N+]([O-])c1ccc(Cn2nc(-c3ccccc3Cl)[nH]c2=S)cc1 [Example 65, 5-(2-Chlorophenyl)-1,2-dihydro-2-[(4-nitrophenyl)methyl]-3H-1,2,4-triazoe-3-thione]	182 to 183 °C
S=c1[nH]c(-c2ccccc2Cl)nn1CCc1ccccc1 [Example 66, 5-(2-Chlorophenyl)-1,2-dihydro-2-(2-phenyl)ethyl-3H-1,2,4-triazole-3-thione]	131 to 133 °C
